# Results: patent publication US20250120397A1, “PEST CONTROL METHOD” (National Chung Hsing University, priority 2023, published 2025)
# Columns and labels:
# Type in all cases: in vivo
# [1] = system: Sitophilus oryzae (rice weevil); assay: 24-hour fumigation in sealed 1-L container, fatality rate
# Source text: (§1) Sitophilus oryzae (rice weevil), Tetranychus urticae (two-spotted spider mite), Lasioderma serricorne (cigarette beetle), Blattella germanica (German cockroach), Anoplolepis longipes (long-legged ant), and Solenopsis invicta (red imported fire ant) were used as the test objects of this experiment and were each put into several 1-L containers. A carrier containing an isododecane (or 2,2,4,6,6-pentamethylheptane to be exact) at each of a plurality of predetermined concentrations (i.e., 2.5, 5, 10, 20, 30, and 40 mg) was then put into one of the 1-L containers of each test object, before the containers were sealed to start a 24-hour fumigation process. After that, the containers were aerated, and the numbers of deaths of each kind of pests were counted.
# (§2) Sitophilus oryzae, Tetranychus urticae, Lasioderma serricorne, Blattella germanica, Anoplolepis longipes, and Solenopsis invicta were each put into several 1-L containers. A carrier containing each of n-dodecane, n-decane, 2-methylnonane (an isodecane), and 2,2,4,6,6-pentamethylheptane (an isododecane) at a concentration of 30 mg was then put into one of the 1-L containers of each test object, before the containers were sealed to start a 24-hour fumigation process. After that, the containers were aerated, and the numbers of deaths of each kind of pests were counted.
# [2] = system: Lasioderma serricorne (cigarette beetle); assay: as above
# Source text: as §1, §2
# [3] = system: Solenopsis invicta (red imported fire ant); assay: as above
# Source text: as §1, §2
# [4] = system: Anoplolepis longipes (long-legged ant); assay: as above
# Source text: as §1, §2
# [5] = system: Tetranychus urticae (two-spotted spider mite); assay: as above
# Source text: as §1, §2
# [6] = system: Blattella germanica (German cockroach); assay: as above
# Source text: as §1, §2
# mosquito larvae = assay: Mosquito larvae killing in 100 mL deionized water, 24 hours, fatality rate; details: uncovered
# Procedure: Artificially raised non-pathogenic mosquito larvae were divided into a plurality of groups each including 30 larvae. Each group of larvae was put into a 1-L container together with 100 mL of deionized water. Then, a reagent containing a spreading agent for agricultural use as well as an isododecane and an isohexadecane in a ratio of 4:1 was added into the deionized water in each container at one of a plurality of predetermined doses and thoroughly mixed. The containers were left uncovered. After 24 hours, the numbers of deaths of the mosquito larvae were counted.
# [7] = Table 2: compound at 30 mg in 1-L container
smiles,measurement,setting,value
CCCCCCCC(C)C [2-methylnonane],Fatality rate (%) Sitophilus oryzae,[1]; [7],100%
same,Fatality rate (%) Lasioderma serricorne,[2]; [7],100%
same,Fatality rate (%) Solenopsis invicta,[3]; [7],100%
same,Fatality rate (%) Anoplolepis longipes,[4]; [7],90%
same,Fatality rate (%) Tetranychus urticae,[5]; [7],100%
same,Fatality rate (%) Blattella germanica,[6]; [7],100%
CCCCCCCCCC [n-decane],Fatality rate (%) Sitophilus oryzae,[1]; [7],100%
same,Fatality rate (%) Lasioderma serricorne,[2]; [7],100%
same,Fatality rate (%) Solenopsis invicta,[3]; [7],100%
same,Fatality rate (%) Anoplolepis longipes,[4]; [7],75%
same,Fatality rate (%) Tetranychus urticae,[5]; [7],100%
same,Fatality rate (%) Blattella germanica,[6]; [7],100%
CCCCCCCCCCCC [n-dodecane],Fatality rate (%) Sitophilus oryzae,[1]; [7],50%
same,Fatality rate (%) Lasioderma serricorne,[2]; [7],100%
same,Fatality rate (%) Solenopsis invicta,[3]; [7],5%
same,Fatality rate (%) Anoplolepis longipes,[4]; [7],25%
same,Fatality rate (%) Tetranychus urticae,[5]; [7],95%
same,Fatality rate (%) Blattella germanica,[6]; [7],22.22%
"CC(CC(C)(C)C)CC(C)(C)C [2,2,4,6,6-pentamethylheptane]",Fatality rate (%) of mosquito larvae,mosquito larvae; dose 2.5 mg in 100 mL deionized water,33%
same,Fatality rate (%) of mosquito larvae,mosquito larvae; dose 5 mg in 100 mL deionized water,50%
same,Fatality rate (%) of mosquito larvae,mosquito larvae; dose 10 mg in 100 mL deionized water,80%
same,Fatality rate (%) of mosquito larvae,mosquito larvae; dose 20 mg in 100 mL deionized water,100%
same,Fatality rate (%) of mosquito larvae,mosquito larvae; dose 40 mg in 100 mL deionized water,100%
same,Fatality rate (%) Sitophilus oryzae,[1]; [7],100%
same,Fatality rate (%) Sitophilus oryzae,[1]; dose 2.5 mg in 1-L container,0%
same,Fatality rate (%) Sitophilus oryzae,[1]; dose 5 mg in 1-L container,7%
same,Fatality rate (%) Sitophilus oryzae,[1]; dose 10 mg in 1-L container,22%
same,Fatality rate (%) Sitophilus oryzae,[1]; dose 20 mg in 1-L container,30%
same,Fatality rate (%) Sitophilus oryzae,[1]; dose 30 mg in 1-L container,100%
same,Fatality rate (%) Sitophilus oryzae,[1]; dose 40 mg in 1-L container,100%
same,Fatality rate (%) Lasioderma serricorne,[2]; [7],100%
same,Fatality rate (%) Lasioderma serricorne,[2]; dose 2.5 mg in 1-L container,5%
same,Fatality rate (%) Lasioderma serricorne,[2]; dose 5 mg in 1-L container,18%
same,Fatality rate (%) Lasioderma serricorne,[2]; dose 10 mg in 1-L container,25%
same,Fatality rate (%) Lasioderma serricorne,[2]; dose 20 mg in 1-L container,42.11%
same,Fatality rate (%) Lasioderma serricorne,[2]; dose 30 mg in 1-L container,100%
same,Fatality rate (%) Lasioderma serricorne,[2]; dose 40 mg in 1-L container,100%
same,Fatality rate (%) Solenopsis invicta,[3]; [7],100%
same,Fatality rate (%) Solenopsis invicta,[3]; dose 2.5 mg in 1-L container,32%
same,Fatality rate (%) Solenopsis invicta,[3]; dose 5 mg in 1-L container,55%
same,Fatality rate (%) Solenopsis invicta,[3]; dose 10 mg in 1-L container,100%
same,Fatality rate (%) Solenopsis invicta,[3]; dose 20 mg in 1-L container,100%
same,Fatality rate (%) Solenopsis invicta,[3]; dose 30 mg in 1-L container,100%
same,Fatality rate (%) Solenopsis invicta,[3]; dose 40 mg in 1-L container,100%
same,Fatality rate (%) Anoplolepis longipes,[4]; [7],100%
same,Fatality rate (%) Anoplolepis longipes,[4]; dose 2.5 mg in 1-L container,8%
same,Fatality rate (%) Anoplolepis longipes,[4]; dose 5 mg in 1-L container,14%
same,Fatality rate (%) Anoplolepis longipes,[4]; dose 10 mg in 1-L container,32%
same,Fatality rate (%) Anoplolepis longipes,[4]; dose 20 mg in 1-L container,80%
same,Fatality rate (%) Anoplolepis longipes,[4]; dose 30 mg in 1-L container,100%
same,Fatality rate (%) Anoplolepis longipes,[4]; dose 40 mg in 1-L container,100%
same,Fatality rate (%) Tetranychus urticae,[5]; [7],100%
same,Fatality rate (%) Tetranychus urticae,[5]; dose 2.5 mg in 1-L container,45%
same,Fatality rate (%) Tetranychus urticae,[5]; dose 5 mg in 1-L container,72%
same,Fatality rate (%) Tetranychus urticae,[5]; dose 10 mg in 1-L container,100%
same,Fatality rate (%) Tetranychus urticae,[5]; dose 20 mg in 1-L container,100%
same,Fatality rate (%) Tetranychus urticae,[5]; dose 30 mg in 1-L container,100%
same,Fatality rate (%) Tetranychus urticae,[5]; dose 40 mg in 1-L container,100%
same,Fatality rate (%) Blattella germanica,[6]; [7],100%
same,Fatality rate (%) Blattella germanica,[6]; dose 2.5 mg in 1-L container,7%
same,Fatality rate (%) Blattella germanica,[6]; dose 5 mg in 1-L container,18%
same,Fatality rate (%) Blattella germanica,[6]; dose 10 mg in 1-L container,38%
same,Fatality rate (%) Blattella germanica,[6]; dose 20 mg in 1-L container,88.89%
same,Fatality rate (%) Blattella germanica,[6]; dose 30 mg in 1-L container,100%
same,Fatality rate (%) Blattella germanica,[6]; dose 40 mg in 1-L container,100%
